Like-named read-outs stand apart in the source and are kept apart here.
How the values were obtained:
[1] = system: pool of barcoded drug-resistant P. falciparum parasites (Dd2 and 3D7 backgrounds); assay type: cell-based, Plasmodium falciparum; settings: 3xIC50
Procedure: The pool consisted of 52 lines (Supplementary File S2) in both the Dd2 and 3D7 backgrounds, including wild-type, that were barcoded at the pfpare locus (PF3D7_0709700)^[18], with unique 11-bp barcode sequences. The pool (triplicate cultures of 1 mL) was exposed to 3 xIC50 of each test compound, including the positive control compound halofuginone that targets prolyl tRNA synthetase. Growth of the pool was measured every 2–3 days by flow cytometry (Beckman CytoFlex 5), staining with 1xSYBR Green I and 200 nM MitoTracker Deep Red, and parasitemia maintained within a range <5% parasitemia. At day 14, samples were harvested, lysed with 0.05% saponin and parasite pellets collected. Barcodes were amplified by PCR and quantified by sequencing using an Oxford Nanopore minION. The change in barcode proportion (log2 fold change, LFC) was measured relative to the no-drug control, with LFC>2.5 indicating cross-resistance.

[2] = system: PfNF54 schizonts; experiment: Stage-specific morphological evaluation, nuclei count per schizont; assay type: cell-based, Plasmodium falciparum; settings: TAE684 3xIC50, hesperadin IC99; n = 30
Procedure: Nuclei content was detected by consecutive staining with SYBR Green I (DNA fluorescence), detected in the FITC channel.
To determine the stage specificity during asexual intra-erythrocytic development, P. falciparum NF54 parasites were synchronised using 5% D-Sorbitol to obtain a >90% ring-stage population (6–10 h post-invasion, hpi). […] The rate of activity and stage-specificity was monitored morphologically using Giemsa-stained thin smears. Asexual intra-erythrocytic stage parasites were treated at ring, early/late trophozoite, and schizont stages, sampling every 12 h over a 48-hour period. Images were captured using a Nikon Eclipse 50i light microscope adapted with a Nikon camera (Nikon DS-Fi1) and NIS-Elements software. […] Parasite progression was monitored every 12 h over a 48-h period using flow cytometry, as described in^[11]. The IC50 speed assay was conducted as described in^[12]. Briefly, unsynchronised P. falciparum NF54 asexual proliferation was determined using a SYBR Green I proliferation-based assay and expressed as IC50 values as described earlier. Four incubation times were employed for each inhibitor: 96 (standard assay time), 72, 48 and 24 h. IC50 values were obtained from corrected dose-response curves using Graph-Pad Prism v10.5.

COc1cc(N2CCC(N3CCN(C)CC3)CC2)ccc1Nc1ncc(Cl)c(Nc2ccccc2S(=O)(=O)C(C)C)n1 [TAE684, NVP-TAE684]
barcode population Day 14 ([1]; line 3D7 (Wild type)): 5.080
barcode population Day 14 ([1]; line 3D7 ABCI3 R2180P): 2.690
barcode population Day 14 ([1]; line 3D7 ACS10 M300I): 3.200
barcode population Day 14 ([1]; line 3D7 ACS11 D648Y): 0.620
barcode population Day 14 ([1]; line 3D7 ATP2 CNV2): 2.100
barcode population Day 14 ([1]; line 3D7 DHFR-TS G378E): 0.990
barcode population Day 14 ([1]; line 3D7 DHFR-TS I403L): 3.400
barcode population Day 14 ([1]; line 3D7 FTb A515T): 1.770
barcode population Day 14 ([1]; line 3D7 MDR2 K840N): 1.670
barcode population Day 14 ([1]; line 3D7 NCR1 A1108T): 2.230
barcode population Day 14 ([1]; line Dd2 (Wild type)): 5.040
barcode population Day 14 ([1]; line Dd2-pol-delta D308A-E310A): 0.01
barcode population Day 14 ([1]; line Dd2 ATP4 G358S): 1.130
barcode population Day 14 ([1]; line Dd2 ATP4 L927V): 1.370
barcode population Day 14 ([1]; line Dd2 ATP4 Q172H): 3.070
barcode population Day 14 ([1]; line Dd2 AcAS A597V): 0.650
barcode population Day 14 ([1]; line Dd2 AcAS T648M): 2.430
barcode population Day 14 ([1]; line Dd2 AsnRS R487S): 1.530
barcode population Day 14 ([1]; line Dd2 CARL I1139K-a): 0.010
barcode population Day 14 ([1]; line Dd2 CARL I1139K-b): 0.230
barcode population Day 14 ([1]; line Dd2 CARL V1103L): 0.680
barcode population Day 14 ([1]; line Dd2 CLK3 H259P): 1.590
barcode population Day 14 ([1]; line Dd2 CPSF Y408S E): 1.340
barcode population Day 14 ([1]; line Dd2 CPSF Y408S S): 0.580
barcode population Day 14 ([1]; line Dd2 CRT M343L): 2.390
barcode population Day 14 ([1]; line Dd2 CSC1 L800P): 1.280
barcode population Day 14 ([1]; line Dd2 DHFR-TS S216R): 1.710
barcode population Day 14 ([1]; line Dd2 DHODH C276Y): 3.290
barcode population Day 14 ([1]; line Dd2 DHODH F227I): 0.650
barcode population Day 14 ([1]; line Dd2 DHODH I263F): 0.120
barcode population Day 14 ([1]; line Dd2 DHODH L531F): 0.480
barcode population Day 14 ([1]; line Dd2 GGPPS S228T): 0.800
barcode population Day 14 ([1]; line Dd2 HSP90 A41S): 2.760
barcode population Day 14 ([1]; line Dd2 IleRS E180D): 2.660
barcode population Day 14 ([1]; line Dd2 IleRS L810F): 1.180
barcode population Day 14 ([1]; line Dd2 IleRS V500A): 0.960
barcode population Day 14 ([1]; line Dd2 MCP D195N): 0.270
barcode population Day 14 ([1]; line Dd2 MCP P214T): 5.790
barcode population Day 14 ([1]; line Dd2 PI4K S743F+H1484Y): 1.350
barcode population Day 14 ([1]; line Dd2 PI4K S1320L+L1418F): 1.960
barcode population Day 14 ([1]; line Dd2 PROTB5 A20V): 1.090
barcode population Day 14 ([1]; line Dd2 PROTB5 M45I): 1.500
barcode population Day 14 ([1]; line Dd2 ProRS L482H): 6.690
barcode population Day 14 ([1]; line Dd2 QRP1 D1863Y): 5.420
barcode population Day 14 ([1]; line Dd2 TyrRS S234C): 2.590
barcode population Day 14 ([1]; line Dd2 UDP-GT F37V): 0.250
barcode population Day 14 ([1]; line Dd2 cytBC1 G33V): 1.410
barcode population Day 14 ([1]; line Dd2 cytBC1 V284L): 1.550
barcode population Day 14 ([1]; line Dd2 eEF2 L755F): 1.200
barcode population Day 14 ([1]; line Dd2 eEF2 Y186N): 1.260
barcode population Day 14 ([1]; line Dd2 kelch13 C580C): 2.860
barcode population Day 14 ([1]; line Dd2 kelch13 C580Y): 2.440
barcode population Day 14 ([1]; line Dd2 kelch13 R539T): 0.670
number of daughter merozoites per schizont [2]: significant reduction in the number of daughter merozoites

Reference: paper PMC12707362, “Targeting Aurora Kinases as Essential Cell‐Cycle Regulators to Deliver Multi‐Stage Antimalarials Against Plasmodium Falciparum” (Angewandte Chemie (International Ed. in English), 2025)
